{
  "source": "patent US20220023381A1",
  "about": "“VDAC INHIBITORS FOR TREATING AUTOIMMUNE DISEASES” (NATIONAL INSTITUTE FOR BIOTECHNOLOGY IN THE NEGEV LTD., priority 2018, published 2022)",
  "key": {"MRL/lpr mice": {"test_system": "MRL/lpr mice", "assay": "MRL/lpr lupus-prone mouse model", "assay_type": "in vivo", "description": "All experiments were approved by the ACUC (Animal Care and Use Committee) of the NIH/NHLBI. Lupus-prone female MRL/MpJ-Fas^lpr/J mice (stock #000485, n=10 in each group), used as a model to determine the etiology of systemic lupus erythematosus (SLE), were purchased from The Jackson Laboratory. VIBIT4 was freshly dissolved in DMSO and diluted in water (final pH 5.0). The mice were treated with a daily dose of VBIT-4 (20 mg/kg) or vehicle in drinking water for 5 weeks, beginning at 11 weeks of age until euthanasia at 16 weeks of age. Blood and urine samples were collected when the mice were 16 weeks of age. The body weight of the mice was measured before and after VBIT-4 administration (at 11 and 16 weeks of age).\nProteinuria in fresh urine was measured using creatinine and albumin ELISA kits (Exocell), and mouse albumin was used to determine the proteinuria:creatinine ratio following the manufacturer's instructions.\nCirculating mtDNA was isolated from 500 μl of serum using QIAamp Circulating Nucleic Acid Kit (Qiagen) according to the manufacturer's protocol. Briefly, serum samples were incubated with proteinase K and carrier RNA at 55° C. for 30 min in lysis buffer, and the circulating nucleic acids were bound to the silica membrane by applying vacuum pressure. After washing, the eluted samples were used for real-time RT-PCR. Primers of the mtDNA D-loop3 regions were used to quantify serum mtDNA. Anti-dsDNA antibodies were detected at 1:200 serum dilution using an ELISA kit (Alpha Diagnostic).\nKidneys were harvested after perfusion with PBS from MRL/lpr mice. Frozen kidney sections were fixed in cold acetone for 20 min, washed, and blocked for 18 h at 4° C. with 4% BSA in PBS. To detect glomerular deposits, the sections were stained with FITC-conjugated anti-mouse C3 antibody (GC3-90E-Z, Immunology Consultants Laboratory) and Alexa Fluor 594-conjugated anti-Mouse IgG antibody (A-11020, Invitrogen) with Hoechst staining at 1:100 dilution (Life Technologies) for 1 h at room temperature. After washing with PBS, the tissues were mounted, and the slides were observed using a LSM880 laser confocal microscope. The fluorescence intensity score was determined after analyzing random images for each animal in a blinded manner."}, "EndoG−/− MEFs": {"test_system": "EndoG−/− MEFs", "assay": "ISG expression in EndoG−/− MEFs (real-time PCR / western blot)", "assay_type": "cell-based, mouse", "conditions": "VBIT-4 (10 μM), real-time PCR", "procedure": "All MEFs were grown in complete Dulbecco's modified Eagle's medium (DMEM, Corning) supplemented with 10% fetal bovine serum (FBS, Sigma-Aldrich) and 1% penicillin and streptomycin (antibiotics, Gibco) at 37° C. with 5% CO2.\nTotal RNA was extracted using RNeasy Plus Mini Kit (Qiagen) according to the manufacturer's instructions. The first-strand cDNA was synthesized from 2 μg purified mRNA using Accupower RT PreMix (BioNeer). The reaction mixtures were incubated at 42° C. for 60 min and 94° C. for 5 min. Real-time RT-PCR was performed using the LightCycler 96 system (Roche Life Science) with SYBR Green master mix (Roche). The primers used were as follow (5′-3′): EndoG forward (SEQ ID NO:36), and reverse (SEQ ID NO:37); Cxcl10 forward (SEQ ID NO:38), and reverse (SEQ ID NO:39); GAPDH forward (SEQ ID NO:40), and reverse (SEQ ID NO:41); Ifi44 forward (SEQ ID NO:42), and reverse (SEQ ID NO:43); Ifit1 forward (SEQ ID NO:44), and reverse (SEQ ID NO:45); Ifit3 forward (SEQ ID NO:46), and reverse (SEQ ID NO:47); IFNα4 forward (SEQ ID NO:48), and reverse (SEQ ID NO:49); IFNβ forward (SEQ ID NO:50), and reverse (SEQ ID NO:51); Iigp1 forward (SEQ ID NO:52), and reverse (SEQ ID NO:53); ISG15 forward (SEQ ID NO:54), and reverse (SEQ ID NO:55); Oasl2 forward (SEQ ID NO:56), and reverse (SEQ ID NO:57); Rsad2 forward (SEQ ID NO:58), and reverse (SEQ ID NO:59); USP18 forward (SEQ ID NO:60), and reverse (SEQ ID NO:61); VDAC1 forward (SEQ ID NO:62), and reverse (SEQ ID NO:63). GAPDH was used as an internal standard of mRNA expression, and the ratio of the target gene expression to GAPDH expression was calculated using LightCycler 96 Instrument software (Roche). The quality of real-time RT-PCR results was evaluated based on the melting temperature (Tm) of a DNA fragment and melting curve analysis."}, "rat liver mitochondria": {"test_system": "rat liver mitochondria", "assay": "Ca2+ accumulation by isolated mitochondria", "conditions": "purified mitochondria", "description": "(§1) The PTP opening was analyzed following mitochondria swelling. Briefly, freshly isolated mitochondria (0.5 mg/ml) were incubated for 2 min at 24° C. with the indicated concentrations of VBIT-4 for Ca^2+-induced mitochondrial swelling assay. Swelling was initiated by the addition of Ca^2+ (0.1 mM) to the sample cuvette. Absorbance changes at 520 nm were monitored every 16 s for 15 min. Cyclosporine A 10 μM) was used as a positive control. […] Ca^2+ accumulation by freshly isolated rat liver mitochondria (0.5 mg/ml) was assayed with the indicated concentrations of VBIT-4 in the presence of […] CaCl2) (containing [^45Ca^2+]), 220 mM mannitol, 70 mM sucrose, 5 mM succinate, 0.15 mM Pi and 15 mM Tris/HCl, pH 7.2. Ca^2+ uptake was terminated by rapid Millipore filtration (0.45 μm)."}, "PTP": {"test_system": "PTP", "assay": "Mitochondrial swelling assay (PTP opening)", "conditions": "purified mitochondria, Ca2+-induced swelling", "description": "as §1"}, "VDAC1": {"biological_target": "T1, VDAC1 (Rattus norvegicus, UniProt Q9Z2L0)", "T1 construct": "from tissue; host or cells: rat liver mitochondria (inferred)", "T1 sequence (Q9Z2L0 whole entry)": "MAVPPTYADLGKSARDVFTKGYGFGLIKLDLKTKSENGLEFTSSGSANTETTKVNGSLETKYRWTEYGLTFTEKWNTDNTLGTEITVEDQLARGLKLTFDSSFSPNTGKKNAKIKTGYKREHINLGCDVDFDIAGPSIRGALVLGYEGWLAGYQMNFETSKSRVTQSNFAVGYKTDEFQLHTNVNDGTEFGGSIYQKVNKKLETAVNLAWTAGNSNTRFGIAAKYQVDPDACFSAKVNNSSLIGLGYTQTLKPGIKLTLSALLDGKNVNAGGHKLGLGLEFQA", "assay": "Micro-scale thermophoresis (MST) interaction with VDAC1", "assay_type": "binding", "conditions": "without prior exposure to high voltage"}, "[1]": {"test_system": "low-density granulocytes (LDG) and normal-density granulocytes (NDG)", "assay": "NET formation (NETosis) in granulocytes", "assay_type": "cell-based, human", "description": "Normal-density granulocytes (NDGs) were isolated from heparinized venous blood using a Ficoll-Paque gradient (GE Healthcare) with dextran (Sigma-Aldrich) sedimentation, followed by red blood cell lysis using hypotonic NaCl. From the PBMC layer, low-density granulocytes (LDGs) were isolated using a negative selection method. The cells were resuspended in RPMI 1640 medium for further characterization. NETs were induced in NDGs by incubating cells with calcium ionophore A23187 (25 μM) (Thermo Fisher) in RPMI 1640 medium for 2 h, and NETs were quantified using SYTOX fluorescent dye at 485/520 nm to quantify extracellular DNA. The fluorescence of PicoGreen (Life Technologies) at t=0 min was measured at 485/520 nm […] to quantify the total DNA. The fluorescence was quantified using a microplate reader (Synergy HTX; BIOTEK). NETs were also quantified by fluorescence microscopy. Briefly, the cells were attached to coverslip chambers, stimulated for 90 min at 37° C. with calcium ionophore, fixed with 4% paraformaldehyde overnight at 4° C., and permeabilized with 0.2% Triton X-100 for 10 min, followed by 0.5% gelatin for 20 min. The cells were stained with antibodies against human neutrophil elastase (ab21595, Abcam) for 2 h at room temperature, washed in PBS, and stained with Hoechst 33342 (Life Technologies) and Alexa Fluor 488 secondary antibody (A31570, Life Technologies) for 2 h at room temperature. After mounting, the cells were visualized with a LSM780 confocal microscope."}, "human PBMCs": {"test_system": "human PBMCs", "assay": "A23187-induced mitochondrial ROS (MitoSOX)", "assay_type": "cell-based", "conditions": "VBIT-4 (5 μM), A23187 (25 μM), 1 h", "description": "Cellular cGAMP levels were measured by LC/MS (Agilent Technologies) using 5% perchloric acid extracts of WT and EndoG^−/− MEFs. Intracellular ROS production in MEFs was measured using the oxidative stress indicator CM-H2DCFDA (Invitrogen) with flow cytometry (FACS). Mitochondrial ROS in MEFs was evaluated using the mitochondrial superoxide indicator MitoSOX (Invitrogen) with a confocal microscope (LSM880, Zeiss, and the fluorescence intensity was measured using Zen software (Zeiss). To quantify mitochondrial ROS in human PBMCs, the cells were obtained from heparinized blood using a Ficoll-Paque gradient. The cells were washed with PBS, resuspended in RPMI 1640 medium, and transferred to 96-well plates. Subsequently, the cells were stimulated with calcium ionophore A23187 (25 μM), VBIT-4 (5 μM), and MitoSOX (2 μM) (Life Technologies). After 1 h at 37° C., the fluorescence was measured at 510/595 nm using a microplate reader (Synergy HTX; BIOTEK). Cells without dye were used as the blank control."}, "[2]": {"conditions": "VBIT-4 20 mg/kg daily in drinking water, 5 weeks"}},
  "data": [
    {"smiles": "O=C(CC(CO)N1CCN(c2ccc(OC(F)(F)F)cc2)CC1)Nc1ccc(Cl)cc1", "note": "(stereo not drawn) [VBIT-4, N-(4-chlorophenyl)-4-hydroxy-3-(4-(4-(trifluoromethoxy)phenyl)-piperazin-1-yl)butanamide]", "values": [
      {"measurement": "weight of spleen and lymph node", "setting": "MRL/lpr mice; 20 mg/kg daily, 5 weeks, at 16 weeks of age", "value": "reduced"},
      {"measurement": "renal immune complex deposition", "setting": "MRL/lpr mice; C3 and IgG in kidney glomeruli, compared with vehicle-treated mice", "value": "significantly diminished"},
      {"measurement": "alopecia of face and dorsal", "setting": "MRL/lpr mice; [2]", "value": "suppressed"},
      {"measurement": "development of skin lesions", "setting": "MRL/lpr mice; [2]", "value": "blocked"},
      {"measurement": "mortality", "setting": "MRL/lpr mice; [2]", "value": "did not cause any mortality"},
      {"measurement": "thickening of the epidermis that accompanies leukocyte infiltration", "setting": "MRL/lpr mice; [2]", "value": "blocked"},
      {"measurement": "change in body weight", "setting": "MRL/lpr mice; VBIT-4 20 mg/kg daily in drinking water, 5 weeks, 11 and 16 weeks of age", "value": "did not cause any mortality or change in body weight"},
      {"measurement": "proteinuria", "setting": "MRL/lpr mice; albumin:creatinine ratio, compared with vehicle-treated mice", "value": "significantly diminished"},
      {"measurement": "serum anti-dsDNA", "setting": "MRL/lpr mice; compared with vehicle-treated mice", "value": "significantly diminished"},
      {"measurement": "cell-free mtDNA", "setting": "MRL/lpr mice; serum, compared with vehicle-treated mice", "value": "significantly diminished"},
      {"measurement": "ISG induction", "setting": "MRL/lpr mice; spleen, real-time PCR, compared with vehicle-treated mice", "value": "significantly diminished"},
      {"measurement": "ISG expression", "setting": "EndoG−/− MEFs", "value": "decreased"},
      {"measurement": "Ca2+ uptake", "setting": "rat liver mitochondria", "value": "did not prevent"},
      {"measurement": "PTP opening", "setting": "PTP", "value": "did not prevent"},
      {"measurement": "interaction with VDAC1 measured by MST", "setting": "VDAC1", "value": "did show interaction"},
      {"measurement": "NETosis", "setting": "[1]; LDG from lupus patients, spontaneous NET formation, VBIT-4 (5 μM), microscopy", "value": "strongly inhibited"},
      {"measurement": "NETosis", "setting": "[1]; NDG from healthy controls, SYTOX-PicoGreen plate assay", "value": "strongly inhibited"},
      {"measurement": "NETosis", "setting": "[1]; NDG from lupus patients, A23187-stimulated, microscopy", "value": "strongly inhibited"},
      {"measurement": "NETosis", "setting": "[1]; NDG from lupus patients, SYTOX-PicoGreen plate assay", "value": "strongly inhibited"},
      {"measurement": "A23187-induced mitochondrial ROS", "setting": "human PBMCs; healthy controls", "value": "decreased"},
      {"measurement": "A23187-induced mitochondrial ROS", "setting": "human PBMCs; lupus patients", "value": "decreased"}
    ]}
  ]
}
